Measured values taken from ChEMBL document CHEMBL3991601, “The target landscape of clinical kinase drugs” (Science, 2017).
Calls of active or inactive are those of the source.

Legend:
Activin receptor type-2B = Activin receptor type-2B (Homo sapiens, UniProt Q13705)
[1] = target: Serine/threonine-protein kinase MRCK beta (Homo sapiens, UniProt Q9Y5S2)
Ephrin type-A receptor 5 = Ephrin type-A receptor 5 (Homo sapiens, UniProt P54756)
Glycine--tRNA ligase = target: T1, Glycine--tRNA ligase (Homo sapiens, UniProt P41250)
T1 sequence (P41250 whole entry): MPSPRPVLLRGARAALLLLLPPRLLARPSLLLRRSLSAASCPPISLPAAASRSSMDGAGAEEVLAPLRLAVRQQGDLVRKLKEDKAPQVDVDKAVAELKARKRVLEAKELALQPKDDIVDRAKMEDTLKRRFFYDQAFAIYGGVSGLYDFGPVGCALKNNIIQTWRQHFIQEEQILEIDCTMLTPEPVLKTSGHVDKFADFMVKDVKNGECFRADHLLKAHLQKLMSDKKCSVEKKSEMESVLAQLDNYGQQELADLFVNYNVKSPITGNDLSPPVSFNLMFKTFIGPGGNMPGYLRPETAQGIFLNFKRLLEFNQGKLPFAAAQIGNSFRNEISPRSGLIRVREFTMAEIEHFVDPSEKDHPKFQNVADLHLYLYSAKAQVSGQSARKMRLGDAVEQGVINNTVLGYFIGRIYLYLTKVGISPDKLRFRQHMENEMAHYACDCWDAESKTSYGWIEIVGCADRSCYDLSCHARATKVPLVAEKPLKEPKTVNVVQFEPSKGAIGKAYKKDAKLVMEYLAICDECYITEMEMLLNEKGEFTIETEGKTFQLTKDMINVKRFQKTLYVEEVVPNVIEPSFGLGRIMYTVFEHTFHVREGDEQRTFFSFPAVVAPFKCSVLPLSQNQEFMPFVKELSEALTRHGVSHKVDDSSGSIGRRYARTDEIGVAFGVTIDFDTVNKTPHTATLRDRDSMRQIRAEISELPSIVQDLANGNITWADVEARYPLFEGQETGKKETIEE

Insulin receptor = Insulin receptor (Homo sapiens, UniProt P06213)
[2] = target: Maternal embryonic leucine zipper kinase (Homo sapiens, UniProt Q14680)
[3] = target: Macrophage-stimulating protein receptor (Homo sapiens, UniProt Q04912)
[4] = target: Myosin light chain kinase, smooth muscle (Homo sapiens, UniProt Q15746)
[5] = target: T2, ATP-dependent 6-phosphofructokinase, platelet type (Homo sapiens, UniProt Q01813)
T2 sequence (Q01813 whole entry): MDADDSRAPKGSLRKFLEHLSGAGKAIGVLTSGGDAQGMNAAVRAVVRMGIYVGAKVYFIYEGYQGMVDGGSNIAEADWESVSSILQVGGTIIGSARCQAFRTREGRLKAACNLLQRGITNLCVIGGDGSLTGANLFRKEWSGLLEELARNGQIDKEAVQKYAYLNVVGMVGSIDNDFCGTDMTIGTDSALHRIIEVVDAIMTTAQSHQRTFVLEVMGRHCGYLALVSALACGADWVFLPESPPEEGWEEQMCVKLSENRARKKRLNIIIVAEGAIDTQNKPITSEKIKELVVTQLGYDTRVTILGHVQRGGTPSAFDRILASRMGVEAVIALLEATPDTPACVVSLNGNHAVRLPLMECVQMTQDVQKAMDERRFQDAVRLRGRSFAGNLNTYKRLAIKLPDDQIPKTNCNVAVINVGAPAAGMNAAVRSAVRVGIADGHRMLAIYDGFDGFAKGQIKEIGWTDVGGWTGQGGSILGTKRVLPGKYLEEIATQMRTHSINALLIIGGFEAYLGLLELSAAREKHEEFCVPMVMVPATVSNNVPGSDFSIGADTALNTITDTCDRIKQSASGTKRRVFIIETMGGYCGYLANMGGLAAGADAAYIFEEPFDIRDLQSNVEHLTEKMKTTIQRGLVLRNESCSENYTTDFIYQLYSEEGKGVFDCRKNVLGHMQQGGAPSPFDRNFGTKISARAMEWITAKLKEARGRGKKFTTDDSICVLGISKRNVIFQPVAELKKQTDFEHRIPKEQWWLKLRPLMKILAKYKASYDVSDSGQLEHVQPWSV

[6] = target: cAMP-dependent protein kinase type II-alpha regulatory subunit (Homo sapiens, UniProt P13861)
[7] = target: T3, Serine/threonine-protein kinase ULK1 (Homo sapiens, UniProt O75385)
T3 sequence (O75385 whole entry): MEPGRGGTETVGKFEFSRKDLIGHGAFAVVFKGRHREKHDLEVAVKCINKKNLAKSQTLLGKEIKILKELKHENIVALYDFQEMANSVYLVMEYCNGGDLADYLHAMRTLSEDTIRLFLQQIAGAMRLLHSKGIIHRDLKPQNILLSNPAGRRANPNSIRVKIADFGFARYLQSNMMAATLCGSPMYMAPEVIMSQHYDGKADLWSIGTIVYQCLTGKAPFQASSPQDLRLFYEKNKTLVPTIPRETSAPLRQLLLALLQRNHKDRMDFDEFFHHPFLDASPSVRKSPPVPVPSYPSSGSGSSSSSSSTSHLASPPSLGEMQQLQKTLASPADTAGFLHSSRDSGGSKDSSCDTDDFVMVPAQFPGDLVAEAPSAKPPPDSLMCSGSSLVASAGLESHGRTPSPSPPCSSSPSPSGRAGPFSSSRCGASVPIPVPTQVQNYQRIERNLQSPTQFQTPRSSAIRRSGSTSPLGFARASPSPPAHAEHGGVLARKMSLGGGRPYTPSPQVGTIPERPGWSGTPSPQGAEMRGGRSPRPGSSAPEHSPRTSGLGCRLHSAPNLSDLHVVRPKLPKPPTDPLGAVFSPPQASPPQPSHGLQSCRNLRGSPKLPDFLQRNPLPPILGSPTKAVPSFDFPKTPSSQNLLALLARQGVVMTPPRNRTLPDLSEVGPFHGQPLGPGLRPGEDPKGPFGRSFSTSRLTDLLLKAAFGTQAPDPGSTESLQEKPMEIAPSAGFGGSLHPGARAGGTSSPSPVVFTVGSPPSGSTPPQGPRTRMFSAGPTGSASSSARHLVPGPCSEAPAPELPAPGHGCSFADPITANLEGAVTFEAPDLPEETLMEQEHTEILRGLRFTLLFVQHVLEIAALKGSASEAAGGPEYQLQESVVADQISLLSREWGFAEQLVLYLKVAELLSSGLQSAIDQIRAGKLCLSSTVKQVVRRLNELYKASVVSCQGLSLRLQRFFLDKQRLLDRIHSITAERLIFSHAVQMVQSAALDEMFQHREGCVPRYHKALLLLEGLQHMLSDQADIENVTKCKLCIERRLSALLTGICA
Note: in the data inactive means no Kd found up to 30 µM.

Chain of cAMP-dependent protein kinase type II-alpha regulatory subunit (P13861 whole entry): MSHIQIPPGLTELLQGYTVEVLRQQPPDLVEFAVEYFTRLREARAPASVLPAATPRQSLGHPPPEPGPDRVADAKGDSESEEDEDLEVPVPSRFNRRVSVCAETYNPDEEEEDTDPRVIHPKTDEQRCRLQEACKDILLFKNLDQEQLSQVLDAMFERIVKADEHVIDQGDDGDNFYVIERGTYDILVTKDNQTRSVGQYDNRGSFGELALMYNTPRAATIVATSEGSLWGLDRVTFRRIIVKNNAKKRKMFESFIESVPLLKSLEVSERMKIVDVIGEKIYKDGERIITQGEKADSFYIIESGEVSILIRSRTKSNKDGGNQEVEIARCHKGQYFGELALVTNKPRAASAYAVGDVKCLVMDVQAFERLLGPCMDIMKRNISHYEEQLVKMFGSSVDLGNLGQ
Chain of Ephrin type-A receptor 5 (P54756 whole entry): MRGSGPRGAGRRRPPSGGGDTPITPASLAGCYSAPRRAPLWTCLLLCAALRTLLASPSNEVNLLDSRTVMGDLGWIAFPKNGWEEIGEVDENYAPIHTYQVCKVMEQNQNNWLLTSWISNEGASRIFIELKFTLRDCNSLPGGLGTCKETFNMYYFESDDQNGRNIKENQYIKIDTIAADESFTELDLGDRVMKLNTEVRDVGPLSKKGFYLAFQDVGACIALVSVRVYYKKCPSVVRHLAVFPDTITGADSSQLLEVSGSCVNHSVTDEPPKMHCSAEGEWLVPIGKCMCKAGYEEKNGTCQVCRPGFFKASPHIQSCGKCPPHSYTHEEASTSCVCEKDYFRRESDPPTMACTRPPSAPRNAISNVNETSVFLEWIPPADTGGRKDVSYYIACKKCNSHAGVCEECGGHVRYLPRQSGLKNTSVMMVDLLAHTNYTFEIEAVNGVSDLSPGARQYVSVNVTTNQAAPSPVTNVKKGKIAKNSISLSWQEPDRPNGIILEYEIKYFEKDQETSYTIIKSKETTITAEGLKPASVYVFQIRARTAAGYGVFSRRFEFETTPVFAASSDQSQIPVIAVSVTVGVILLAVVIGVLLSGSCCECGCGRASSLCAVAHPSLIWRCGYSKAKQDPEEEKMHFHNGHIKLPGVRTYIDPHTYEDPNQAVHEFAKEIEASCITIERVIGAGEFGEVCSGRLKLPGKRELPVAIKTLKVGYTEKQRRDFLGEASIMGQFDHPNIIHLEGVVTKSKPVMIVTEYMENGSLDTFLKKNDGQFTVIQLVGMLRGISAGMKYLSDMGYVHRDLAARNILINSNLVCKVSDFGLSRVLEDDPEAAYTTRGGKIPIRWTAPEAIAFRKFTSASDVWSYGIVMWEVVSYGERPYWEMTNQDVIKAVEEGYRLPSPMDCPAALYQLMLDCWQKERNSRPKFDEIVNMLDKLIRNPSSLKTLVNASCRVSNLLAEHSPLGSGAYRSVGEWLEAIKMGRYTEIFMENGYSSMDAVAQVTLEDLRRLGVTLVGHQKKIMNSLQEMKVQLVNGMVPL
Chain of Serine/threonine-protein kinase MRCK beta (Q9Y5S2 whole entry): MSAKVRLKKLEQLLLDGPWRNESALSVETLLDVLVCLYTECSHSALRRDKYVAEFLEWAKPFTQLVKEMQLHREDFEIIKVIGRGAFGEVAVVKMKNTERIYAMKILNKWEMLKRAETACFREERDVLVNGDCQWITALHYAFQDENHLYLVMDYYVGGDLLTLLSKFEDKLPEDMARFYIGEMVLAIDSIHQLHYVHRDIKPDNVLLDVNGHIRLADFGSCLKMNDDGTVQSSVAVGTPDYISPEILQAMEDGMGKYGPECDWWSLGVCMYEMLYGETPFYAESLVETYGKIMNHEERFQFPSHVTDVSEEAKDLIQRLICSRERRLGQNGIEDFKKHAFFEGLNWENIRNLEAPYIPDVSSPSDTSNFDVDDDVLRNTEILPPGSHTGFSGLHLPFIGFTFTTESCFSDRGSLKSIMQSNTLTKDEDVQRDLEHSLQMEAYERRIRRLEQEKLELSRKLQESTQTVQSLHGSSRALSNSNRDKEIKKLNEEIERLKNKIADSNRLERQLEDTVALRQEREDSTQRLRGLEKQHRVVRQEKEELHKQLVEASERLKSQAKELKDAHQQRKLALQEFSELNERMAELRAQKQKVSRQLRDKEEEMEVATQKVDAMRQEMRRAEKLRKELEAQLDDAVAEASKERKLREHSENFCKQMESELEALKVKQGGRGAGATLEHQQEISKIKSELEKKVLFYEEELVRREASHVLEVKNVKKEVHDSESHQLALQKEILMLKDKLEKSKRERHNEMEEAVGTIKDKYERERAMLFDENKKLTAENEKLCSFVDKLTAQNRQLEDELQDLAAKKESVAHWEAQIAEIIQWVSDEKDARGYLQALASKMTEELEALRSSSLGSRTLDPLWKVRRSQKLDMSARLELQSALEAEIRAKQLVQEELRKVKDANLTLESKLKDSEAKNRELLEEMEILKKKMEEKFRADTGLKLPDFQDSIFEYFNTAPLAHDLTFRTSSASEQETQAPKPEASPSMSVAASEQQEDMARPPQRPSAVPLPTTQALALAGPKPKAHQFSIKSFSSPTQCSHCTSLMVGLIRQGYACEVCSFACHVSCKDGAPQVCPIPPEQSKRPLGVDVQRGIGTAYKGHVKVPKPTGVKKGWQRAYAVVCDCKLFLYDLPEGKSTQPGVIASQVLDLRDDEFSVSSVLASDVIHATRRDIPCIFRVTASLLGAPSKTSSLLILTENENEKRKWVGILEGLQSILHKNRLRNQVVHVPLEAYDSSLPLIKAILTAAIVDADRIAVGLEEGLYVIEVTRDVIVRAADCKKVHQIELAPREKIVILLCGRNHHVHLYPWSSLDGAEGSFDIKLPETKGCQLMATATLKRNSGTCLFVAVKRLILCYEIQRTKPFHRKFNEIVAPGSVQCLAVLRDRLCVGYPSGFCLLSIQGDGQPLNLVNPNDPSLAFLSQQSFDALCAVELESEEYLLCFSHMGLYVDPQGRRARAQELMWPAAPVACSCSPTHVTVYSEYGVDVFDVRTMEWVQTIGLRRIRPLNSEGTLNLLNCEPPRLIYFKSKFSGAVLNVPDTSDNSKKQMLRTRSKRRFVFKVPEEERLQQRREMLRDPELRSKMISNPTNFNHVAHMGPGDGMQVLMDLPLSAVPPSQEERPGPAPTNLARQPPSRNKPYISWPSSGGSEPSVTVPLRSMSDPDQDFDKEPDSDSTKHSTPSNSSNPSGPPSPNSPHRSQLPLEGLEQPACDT
Chain of Insulin receptor (P06213 28-758 limits assumed): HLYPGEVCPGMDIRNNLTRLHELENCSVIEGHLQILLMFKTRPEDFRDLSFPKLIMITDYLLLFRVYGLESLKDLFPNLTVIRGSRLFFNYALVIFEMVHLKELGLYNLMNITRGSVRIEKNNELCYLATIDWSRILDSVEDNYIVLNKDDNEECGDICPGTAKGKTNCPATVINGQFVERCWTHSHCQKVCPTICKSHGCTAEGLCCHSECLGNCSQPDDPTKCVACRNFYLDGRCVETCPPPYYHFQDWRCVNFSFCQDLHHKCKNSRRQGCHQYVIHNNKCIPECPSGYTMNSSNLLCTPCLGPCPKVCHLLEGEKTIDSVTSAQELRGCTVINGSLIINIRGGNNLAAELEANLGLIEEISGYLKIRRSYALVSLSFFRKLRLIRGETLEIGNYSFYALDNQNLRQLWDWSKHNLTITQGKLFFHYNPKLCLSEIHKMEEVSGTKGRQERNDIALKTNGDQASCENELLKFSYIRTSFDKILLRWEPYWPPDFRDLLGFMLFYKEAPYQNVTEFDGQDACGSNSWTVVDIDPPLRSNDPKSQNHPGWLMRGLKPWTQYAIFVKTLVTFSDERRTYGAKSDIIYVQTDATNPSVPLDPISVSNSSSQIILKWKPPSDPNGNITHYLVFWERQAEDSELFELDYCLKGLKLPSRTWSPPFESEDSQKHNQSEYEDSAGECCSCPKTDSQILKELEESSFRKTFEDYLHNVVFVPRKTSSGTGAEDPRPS
Chain of Insulin receptor (P06213 763-1382 limits assumed): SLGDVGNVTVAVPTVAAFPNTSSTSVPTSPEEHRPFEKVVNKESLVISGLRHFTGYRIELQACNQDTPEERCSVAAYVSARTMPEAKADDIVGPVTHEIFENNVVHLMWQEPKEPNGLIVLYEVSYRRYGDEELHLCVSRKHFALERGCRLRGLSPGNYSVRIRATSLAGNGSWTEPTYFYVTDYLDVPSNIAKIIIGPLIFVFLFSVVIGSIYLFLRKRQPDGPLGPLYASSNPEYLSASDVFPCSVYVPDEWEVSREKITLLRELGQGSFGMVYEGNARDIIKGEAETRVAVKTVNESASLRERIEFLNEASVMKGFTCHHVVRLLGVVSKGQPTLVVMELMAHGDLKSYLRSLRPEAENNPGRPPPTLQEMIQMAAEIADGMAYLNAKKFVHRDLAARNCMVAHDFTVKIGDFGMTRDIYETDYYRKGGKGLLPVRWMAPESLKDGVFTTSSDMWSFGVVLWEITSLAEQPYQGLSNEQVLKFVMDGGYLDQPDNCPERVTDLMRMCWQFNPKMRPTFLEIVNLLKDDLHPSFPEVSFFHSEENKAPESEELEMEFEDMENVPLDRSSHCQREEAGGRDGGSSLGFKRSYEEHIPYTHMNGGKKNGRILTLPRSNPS
Chain of Activin receptor type-2B (Q13705 whole entry): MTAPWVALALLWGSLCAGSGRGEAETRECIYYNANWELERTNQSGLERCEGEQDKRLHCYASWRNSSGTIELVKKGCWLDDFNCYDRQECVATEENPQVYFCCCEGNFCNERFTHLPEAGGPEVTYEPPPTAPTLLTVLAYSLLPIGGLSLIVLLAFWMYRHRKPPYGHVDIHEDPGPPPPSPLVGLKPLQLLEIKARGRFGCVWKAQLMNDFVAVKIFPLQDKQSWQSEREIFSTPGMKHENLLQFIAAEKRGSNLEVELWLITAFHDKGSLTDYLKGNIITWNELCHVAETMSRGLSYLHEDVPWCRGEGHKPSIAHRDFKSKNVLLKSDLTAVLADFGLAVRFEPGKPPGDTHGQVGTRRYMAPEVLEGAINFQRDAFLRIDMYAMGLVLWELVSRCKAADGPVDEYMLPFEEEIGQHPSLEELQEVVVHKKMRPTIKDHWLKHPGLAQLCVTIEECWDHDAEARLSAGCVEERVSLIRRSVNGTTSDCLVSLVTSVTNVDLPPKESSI

Structure (SMILES) | Kd (Activin receptor type-2B) | Kd [1] | Kd (Ephrin type-A receptor 5) | Kd (Glycine--tRNA ligase) | Kd (Insulin receptor) | Kd [2] | Kd [3] | Kd [4] | Kd [5] | Kd [6] | Kd [7]
COc1cccc2cc(-c3nc([C@H]4CC[C@H](C(=O)O)CC4)n4ncnc(N)c34)[nH]c12 [OSI-027] | > 30 µM (inactive) | > 30 µM (inactive) | > 30 µM (inactive) | > 30 µM (inactive) | > 30 µM (inactive) | > 30 µM (inactive) | > 30 µM (inactive) | > 30 µM (inactive) | > 30 µM (inactive) | > 30 µM (inactive) | > 30 µM (inactive)
O=C(NC[C@H](O)CO)c1ccncc1Nc1ccc(I)cc1F [PIMASERTIB] | > 30 µM (inactive) | > 30 µM (inactive) | > 30 µM (inactive) | > 30 µM (inactive) | > 30 µM (inactive) | > 30 µM (inactive) | > 30 µM (inactive) | > 30 µM (inactive) | > 30 µM (inactive) | > 30 µM (inactive) | > 30 µM (inactive)
c1cc(OCCN2CCCCC2)cc(-c2n[nH]c3ccc(-c4nc[nH]n4)cc23)c1 [CC-401] | > 30 µM (inactive) | > 30 µM (inactive) | > 30 µM (inactive) | > 30 µM (inactive) | > 30 µM (inactive) | 0.217 µM (active) | > 30 µM (inactive) | > 30 µM (inactive) | > 30 µM (inactive) | > 30 µM (inactive) | > 30 µM (inactive)
O=c1[nH]c([C@@H]2CCCN2)nc2c1oc1ccc(Cl)cc12 | > 30 µM (inactive) | > 30 µM (inactive) | > 30 µM (inactive) | > 30 µM (inactive) | > 30 µM (inactive) | > 30 µM (inactive) | > 30 µM (inactive) | > 30 µM (inactive) | > 30 µM (inactive) | > 30 µM (inactive) | > 30 µM (inactive)
COc1ccc(-c2ccc3ncc4c(c3c2)n(-c2ccc(N3CCNCC3)c(C(F)(F)F)c2)c(=O)n4C)cn1 [BGT-226 FREE BASE] | > 30 µM (inactive) | > 30 µM (inactive) | > 30 µM (inactive) | > 30 µM (inactive) | > 30 µM (inactive) | 4.08 µM (active) | > 30 µM (inactive) | > 30 µM (inactive) | > 30 µM (inactive) | > 30 µM (inactive) | > 30 µM (inactive)
O=S(=O)(c1cccc2c(O)nccc12)N1CCCNCC1 [HYDROXYFASUDIL] | > 30 µM (inactive) | > 30 µM (inactive) | > 30 µM (inactive) | > 30 µM (inactive) | > 30 µM (inactive) | > 30 µM (inactive) | > 30 µM (inactive) | > 30 µM (inactive) | > 30 µM (inactive) | > 30 µM (inactive) | 23.3 µM (active)
